Results reported in US10294217B2, “Fluoroindole derivatives as muscarinic M1 receptor positive allosteric modulators” (Suven Life Sciences Limited, priority 2015, dated 2019).
pEC50: −log10 of the molar value. Where a name gives a salt, the structure may show the parent alone.

The compounds below were run against human Muscarinic M1 receptor (Homo sapiens (Human), UniProt P11229) (assay: Allosteric potency EC50 for muscarinic M1 receptor (CHO cells, pCRE-Luc reporter)). Conditions: hM1 PAM EC50, in presence of EC20 of acetylcholine; luciferase activity, 4 hours.
Format: cell-based
Protocol: Determination of Allosteric Potency EC50 Values for Muscarinic M1 Receptor:
A stable CHO cell line expressing recombinant human Muscarinic M1 receptor and pCRE-Luc reporter system was used for cell-based assay. The assay offers a non-radioactive based approach to determine binding of a compound to GPCRs. In this specific assay, the level of intracellular cyclic AMP which is modulated by activation or inhibition of the receptor is measured. The recombinant cells harbor luciferase reporter gene under the control of cAMP response element.
The above cells were grown in 96 well clear bottom white plates in Hams F12 medium containing 10% fetal bovine serum (FBS). Prior to the addition of compounds or standard agonist, cells were serum starved overnight. Increasing concentrations of test compounds were added along with EC20 of acetylcholine in OptiMEM medium to the cells. The incubation was continued at 37° C. in CO2 incubator for 4 hours. Medium was removed and cells were washed with phosphate buffered saline. The cells were lysed and luciferase activity was measured in a Luminometer. Luminescence units were plotted against the compound concentrations using Graphpad software. EC50 values of the compounds were defined as the concentration required in stimulating the luciferase activity by 50% in presence of EC20 of acetylcholine and the results are provided in table 1.

Compared with `O=C(N[C@H]1CCNC[C@H]1F)c1cn(Cc2ccnc(Cl)c2)c2c(F)ccc(F)c12` (single isomer, unassigned; isomer-i) [Example 29, cis-N-(3-Fluoropiperidin-4-yl)-1-(2-chloropyridin-4-ylmethyl)-4,7-difluoro-1H-indole-3-carboxamide hydrochloride (Isomer-I)], `O=C(N[C@@H]1CCNC[C@H]1F)c1cn(Cc2ccnc(F)c2)c2c(F)ccc(F)c12` (single isomer, unassigned; isomer-i) [Example 24, trans-N-(3-Fluoropiperidin-4-yl)-1-(2-fluoropyridin-4-ylmethyl)-4,7-difluoro-1H-indole-3-carboxamide hydrochloride (Isomer-I)] is 0.33 log units higher in pEC50: 5.53 for the first, 5.86 for the second. The second is the more potent here.

`COc1cccc(Cn2cc(C(=O)N[C@H]3CCNC[C@H]3F)c3c(F)cccc32)c1` (single isomer, unassigned; isomer-ii) [Example 36, cis-N-(3-Fluoropiperidin-4-yl)-4-fluoro-1-(3-methoxybenzyl)-1H-indole-3-carboxamide hydrochloride (Isomer-II)] and `COc1ccc(Cn2cc(C(=O)N[C@H]3CCNC[C@H]3F)c3c(F)cccc32)cc1` (single isomer, unassigned; isomer-ii) [Example 37, cis-N-(3-Fluoropiperidin-4-yl)-1-(4-methoxybenzyl)-4-fluoro-1H-indole-3-carboxamide hydrochloride (Isomer-II)] are within 0.2 log units of each other in pEC50: 5.87 for the first, 5.70 for the second.

`COc1ccc(Cn2cc(C(=O)N[C@H]3CCNC[C@H]3F)c3c(F)ccc(F)c32)cc1` (single isomer, unassigned; isomer-i) [Example 39, cis-N-(3-Fluoropiperidin-4-yl)-1-(4-methoxybenzyl)-4,7-difluoro-1H-indole-3-carboxamide hydrochloride (Isomer-I)] and `O=C(N[C@H]1CCNC[C@H]1F)c1cn(Cc2ccc(F)cc2)c2c(F)ccc(F)c12` (single isomer, unassigned; isomer-ii) [Example 32, cis-N-(3-Fluoropiperidin-4-yl)-1-(4-fluorobenzyl)-4,7-difluoro-1H-indole-3-carboxamide hydrochloride (Isomer-II)] are within 0.2 log units of each other in pEC50: 5.83 for the first, 5.80 for the second.

`O=C(N[C@H]1CCNC[C@H]1F)c1cn(Cc2ccc3ncsc3c2)c2cccc(F)c12` (single isomer, unassigned; isomer-i) [Example 45, cis-N-(3-Fluoropiperidin-4-yl)-1-(benzothiazol-6-ylmethyl)-4-fluoro-1H-indole-3-carboxamide hydrochloride (Isomer-I)] and `O=C(N[C@H]1CCNC[C@H]1F)c1cn(Cc2ccnc(Cl)c2)c2cccc(F)c12` (single isomer, unassigned; isomer-i) [Example 27, cis-N-(3-Fluoropiperidin-4-yl)-1-(2-chloropyridin-4-ylmethyl)-4-fluoro-1H-indole-3-carboxamide hydrochloride (Isomer-I)] are within 0.2 log units of each other in pEC50: 5.93 for the first, 5.77 for the second.

`O=C(N[C@H]1CCNC[C@H]1F)c1cn(Cc2ccc(Cl)cc2)c2cccc(F)c12` (single isomer, unassigned; isomer-i) [Example 34, cis-N-(3-Fluoropiperidin-4-yl)-1-(4-chlorobenzyl)-4-fluoro-1H-indole-3-carboxamide hydrochloride (Isomer-I)] and `O=C(N[C@H]1CCNC[C@H]1F)c1cn(Cc2ccccc2F)c2cccc(F)c12` (single isomer, unassigned; isomer-i) [Example 33, cis-N-(3-Fluoropiperidin-4-yl)-1-(2-fluorobenzyl)-4-fluoro-1H-indole-3-carboxamide hydrochloride (Isomer-I)] are the same in pEC50: 5.86 for the first, 5.86 for the second.

`O=C(NC1CCNCC1F)c1cn(Cc2ccnc(F)c2)c2c(F)ccc(F)c12` (single isomer, unassigned; isomer-ii) [Example 23, cis-N-(3-Fluoropiperidin-4-yl-1-(2-fluoropyridin-4-ylmethyl)-4,7-difluoro-1H-indole-3-carboxamide hydrochloride (Isomer-II)] and `O=C(N[C@@H]1CCNC[C@H]1F)c1cn(Cc2ccnc(F)c2)c2c(F)ccc(F)c12` (single isomer, unassigned; isomer-ii) [Example 25, trans-N-(3-Fluoropiperidin-4-yl)-1-(2-fluoropyridin-4-ylmethyl)-4,7-difluoro-1H-indole-3-carboxamide hydrochloride (Isomer-II)] are within 0.2 log units of each other in pEC50: 5.97 for the first, 5.84 for the second.

`O=C(N[C@H]1CCNC[C@H]1F)c1cn(Cc2ccncc2F)c2c(F)ccc(F)c12` (single isomer, unassigned; isomer-i) [Example 26, cis-N-(3-Fluoropiperidin-4-yl)-1-(5-fluoropyridin-4-ylmethyl)-4,7-difluoro-1H-indole-3-carboxamide hydrochloride (Isomer-I)] and `O=C(N[C@H]1CCNC[C@H]1F)c1cn(Cc2ccc(F)cc2)c2c(F)ccc(F)c12` (single isomer, unassigned; isomer-i) [Example 31, cis-N-(3-Fluoropiperidin-4-yl)-1-(4-fluorobenzyl)-4,7-difluoro-1H-indole-3-carboxamide hydrochloride (Isomer-I)] are within 0.2 log units of each other in pEC50: 5.96 for the first, 5.79 for the second.

`O=C(N[C@H]1CCNC[C@H]1F)c1cn(Cc2ccnc(F)c2)c2cccc(F)c12` (single isomer, unassigned; isomer-i) [Example 44, cis-N-(3-Fluoropiperidin-4-yl)-1-(2-fluoropyridin-4-ylmethyl)-4-fluoro-1H-indole-3-carboxamide hydrochloride (Isomer-I)] and `O=C(N[C@H]1CCNC[C@H]1F)c1cn(Cc2ccnc(Cl)c2)c2c(F)ccc(F)c12` (racemic) [Example 28, cis-N-(3-Fluoropiperidin-4-yl)-1-(2-chloropyridin-4-ylmethyl)-4,7-difluoro-1H-indole-3-carboxamide hydrochloride (Racemate)] are within 0.2 log units of each other in pEC50: 5.88 for the first, 5.80 for the second.

Same assay, conditions: in presence of EC20 of acetylcholine; luciferase activity, 4 hours; read-out: hM1 PAM EC50

Going from `Cn1cc(Cn2cc(C(=O)N[C@@H]3CCCC[C@H]3O)c3c(F)cccc32)cn1` [Example 3, N-[(1R,2R)-2-Hydroxycyclohexyl]-1-(1-methyl-1H-pyrazol-4-ylmethyl)-4-fluoro-1H-indole-3-carboxamide] to `O=C(N[C@H]1CCCC[C@@H]1O)c1cn(Cc2cnn(CCF)c2)c2cccc(F)c12` [Example 19, N-[(1S,2S)-2-Hydroxycyclohexyl]-1-(1-(2-fluoroethyl)-1H-pyrazol-4-ylmethyl)-4-fluoro-1H-indole-3-carboxamide], the pEC50 rises from 5.79 to 6.13 (0.34 log units). The second is the more potent here.

Going from `O=C(N[C@H]1CCCC[C@@H]1O)c1cn(Cc2ccc3ncsc3c2)c2cccc(F)c12` [Example 18, N-[(1S,2S)-2-Hydroxycyclohexyl]-1-(benzothiazol-6-ylmethyl)-4-fluoro-1H-indole-3-carboxamide] to `O=C(N[C@H]1CCCC[C@@H]1O)c1cn(Cc2ccnc(F)c2F)c2cccc(F)c12` [Example 13, N-[(1S,2S)-2-Hydroxycyclohexyl]-1-(2,3-difluoropyridin-4-ylmethyl)-4-fluoro-1H-indole-3-carboxamide], the pEC50 falls from 6.80 to 5.86 (0.94 log units).

`Cn1nc(Cn2cc(C(=O)N[C@H]3CCCC[C@@H]3O)c3c(F)cccc32)c2ccccc21` [Example 4] and `O=C(N[C@H]1CCCC[C@@H]1O)c1cn(Cc2ccncc2F)c2cccc(F)c12` [Example 9, N-[(1S,2S)-2-Hydroxycyclohexyl]-1-(3-fluoropyridin-4-ylmethyl)-4-fluoro-1H-indole-3-carboxamide] are within 0.2 log units of each other in pEC50: 5.83 for the first, 5.85 for the second.
